The experiment is described as follows: Evaluation of Antiviral Activity of Compounds Against Human Coronavirus (HCov) 229E and OC43 in the Cytopathic Effect (CPE) Assays: Compounds were assayed using standard methods against multiple coronaviral strains, including HCoV 229E and OC43 strains.

Data on 5 compounds can be found in ChEMBL document CHEMBL5729078, “Inhibitors of cysteine proteases and methods of use thereof” (2022).

A word on the EC50: it is the concentration at which the effect is half-maximal. Low readings indicate greater potency, high ones weaker potency. Consider `CCCOc1cccc2[nH]c(C(=O)N[C@@H](CC(C)C)C(=O)N[C@H](C#N)C[C@@H]3CCNC3=O)cc12`, for which the EC50 is less than 2000 nM.
As a reminder, the IC50 is the concentration that inhibits the measured activity by half. The low end stands for higher potency, the high end for lower potency. Turning to `N#C[C@H](C[C@@H]1CCCNC1=O)NC(=O)[C@H]1CC2(CN1C(=O)c1cc3cccc(Cl)c3[nH]1)CC(F)(F)C2` (single isomer, unassigned), the concentration for a half-maximal effect (EC50) is less than 2000 nM and the 50% inhibitory concentration (IC50) is less than 2000 nM.
Compound `N#C[C@H](C[C@@H]1CCCNC1=O)NC(=O)[C@@H]1CC2(CCCCC2)CN1C(=O)c1cc2ccc(Cl)cc2[nH]1` (single isomer, unassigned) registered an EC50 of less than 2000 nM and a half-maximal inhibitory concentration (IC50) of less than 2000 nM.
`COc1cccc2[nH]c(C(=O)N[C@@H](CC3CC3)C(=O)N[C@@]3(C#N)C[C@@H]4CC[C@@H]3[C@H]3C(=O)NC(=O)[C@@H]43)cc12` (single isomer, unassigned; isomer 1) had an IC50 of more than 30000 nM.
Regarding `COc1cccc2[nH]c(C(=O)N3CC4(CCC4)C[C@@H]3C(=O)N[C@H](C#N)C[C@@H]3CCCNC3=O)cc12` (single isomer, unassigned; isomer 2), the concentration giving a half-maximal response (EC50) is less than 2000 nM.
